Data set [1] deals with skin fibroblasts BJ and keratinocytes HaCaT. The experiment in a line: MTT in vitro cytotoxicity test for skin cells. The format is cell-based. The settings on record: for IC50: Homo sapiens, MTT, 72 hour treatment, BJ and HaCaT, maximal concentration 50 microM. How it is done: MTT assay is a standard test of toxicity based on photometric measurement of the ability of metabolically active cells to reduce MTT (3-(4,5-dimethylthiazol-2-yl)-2,5-diphenyltetrazolium bromide). Using the assay, the effects of 72 hour treatments with several concentrations of the compounds (sixfold dilution, maximal concentration=50 microM) on viability of skin fibroblasts BJ and keratinocytes HaCaT were evaluated. About 5,000 cells were seeded per well of a 96-well plate 24 hours before the treatment. DMSO vehiculum was used as a negative control. After 72 hour treatment, new medium with MTT (Sigma, M2128) was added to a final concentration of 0.5 mg/ml. After 3 hours, medium was removed and resulting formazan in the cells was dissolved in DMSO. The absorbance was measured at 570 nm (640 nm reference wavelength). The IC50 values were calculated from the dose-response curves. 6-Benzylaminopurine riboside and 6-furfurylaminopurine riboside were used as positive controls they were toxic in the MTT test.

Data set [2] shares this test system. Put plainly: SRB in vitro toxicity test. The format is cell-based. To be noted: Homo sapiens, 72 hour treatment, maximal concentration 50 microM. How it is done: SRB (sulforhodamine B) assay is a standard toxicity test based on a photometric measurement of the cellular protein content after the staining with sulphorhodamine B. Using the assay, the effects of 72 hour treatments with several concentrations of the compounds (sixfold dilution, maximal concentration=50 microM) on viability of skin fibroblasts BJ and keratinocytes HaCaT were evaluated. About 5,000 cells were seeded per well of a 96-well plate 24 hours before the treatment. DMSO vehiculum was used as a negative non-toxic control. 6-benzylaminopurine riboside a 6-furfurylaminopurin riboside were used as positive toxic controls. After three days the medium was removed and the cells fixed with 10% (wt/vol) trichloroacetic acid. After the extensive washing in distilled water, 0.4% (wt/vol) solution of SRB in acetic acid was added and the fixed cells were stained for 30 minutes. The unbound stain was washed away by distilled water and the bound SRB was solubilized in unbuffered 10 mM Tris base. Absorbance was measured at 564 nm. IC50 values were calculated from dose-response curves.

Data set [3] concerns detached leaf segments of Triticum aestivum cv. Hereward. The experiment in a line: Senescence bioassay on wheat leaf segments (chlorophyll retention). To be noted: for activity (%) [10^−4 mol · l^−1 BAP = 100%]: chlorophyll retention at maximum effective concentration, 96 h dark. How it is done: Seeds of winter wheat, Triticum aestivum cv. Hereward, were washed under running water for 24 hours and then sown on vermiculite soaked with Knop's solution. They were placed in the growth chamber at 25° C. with a 16/8 h light period at 50 μmol·m^−2·s^−1. After 7 days, the first leaf was fully developed and the second leaf had started to grow. A tip section of the first leaf, approximately 35 mm long, was removed from 5 seedlings and trimmed slightly to a combined weight of 100 mg. The basal ends of the five leaf tips were placed in the wells of a microtiter polystyrene plate containing 150 μL, of the tested derivative solution each. The entire plate was inserted into a plastic box lined with paper tissues soaked in distilled water to prevent leaf sections from drying out. After 96 h incubation in the dark at 25° C., the leaves were removed and chlorophyll extracted by heating at 80° C. for 10 min in 5 mL of 80% ethanol (v/v). The sample volume was then restored to 5 mL by the addition of 80% ethanol (v/v). The absorbance of the extract was recorded at 665 nm. In addition, chlorophyll extracts from fresh leaves and leaf tips incubated in deionised water were measured. The results are means of five replicates and the entire test was repeated twice. […] The compounds to be tested were dissolved in dimethylsulfoxide (DMSO) and the solution brought up to 10^−3M with distilled water. This stock solution was further diluted with the respective media used for the biotest to a concentration ranging from 10^−8M to 10^−4M. […] The activity obtained for 10^−4 M of BAP was postulated as 100%.

Data set [4] can be described thus: Calcein AM cytotoxicity assay, MCF-7. The format is cell-based. To be noted: human, MCF-7 breast cancer cells. An excerpt: (§1) One of the parameters used as the base for cytotoxic analysis is metabolic activity of viable cells, such as microtiter assay, which uses the Calcein AM, is now widely used to quantitate cell proliferation and cytotoxicity. The quantity of reduced Calcein AM corresponds to the number of viable cells in culture. The cell lines of breast cancer (MCF-7), mousse fibroblasts (NIH3T3), human erythromleukemia (K562) were used for routine screening of cytotoxicity of the compounds. The cells were maintened in Nunc/Corning 80 cm^2 plastic bottles and grown in media for cell culture (DMEM containing 5 g/l of glucose, 2 mM of glutamin, 100 U/ml of penicilin, […] of streptomycin, 10% of fetal bovine serum and sodium hydrogencarbonate). Cell suspensions were diluted according to cell types and according to expected final cell density (10^4 of cells per well according to characteristics of cell growth), pipetted 80 μl of cell suspension on 96-well microtiter plates. Innoculates were stabilized by 24 hrs preincubation at 37° C. in CO2. Particular concentrations of tested compounds were added in time zero as 20 μl aliquotto wells of microtiter plates. Usually, the compounds were diluted into six concentrations in four-fold dilution series. In routine testing, the highest well concentration was 166.7 μM, of change dependent on the substance. All drug concentrations were examined in duplicates. The incubation of cells with tested derivatives lasted 72 hrs at 37° C., 100% humidity and in the atmosphere of CO2. At the end of the incubation period, the cells were tested and analysed according to the addition of Calcein AM (Molecular probes) solution and the incubation lasted for next 1 hour. Fluorescence (FD) was measured using Labsystem FIA reader Fluorskan Ascent (Microsystems). The survival of tumor cells (The tumor cell survival-TCS) was counted according to equation: […]=(FDwell with derivative/FDcontrol well)×100%. The value of GI50, that is equal to the concentration of compound at which 50% of tumour cells are terminated. To evaluate the antitumor activity was tested toxicity of new derivatives on panel of cell lines of different histogenetic and species origin (Tab. 7, G150 concentration given in μM). […] Effective derivatives killed tumor cells in concentrations close to 0.1 to 50. None of the newly prepared compounds only reached the value.

A short description of data set [5]: Calcein AM cytotoxicity assay, K562. The format is cell-based, human. The settings on record: human, K562 erythroleukemia cells.
From the text: as §1

A short description of data set [6]: Calcein AM cytotoxicity assay, NIH3T3. The format is cell-based, mouse. The settings on record: mouse, NIH3T3 fibroblasts.
From the text: as §1

A further data set deals with breast cancer (MCF-7). The experiment in a line: Calcein AM cytotoxicity assay, MCF-7. The format is cell-based. The settings on record: 72 hrs.
From the text: as §1

Data set [7] has as its system human erythromleukemia (K562). The experiment in a line: Calcein AM cytotoxicity assay, K562. The format is cell-based. To be noted: 72 hrs.
From the text: as §1

Data set [8] relates to mousse fibroblasts (NIH3T3). Put plainly: Calcein AM cytotoxicity assay, NIH3T3. The format is cell-based, mouse. The settings on record: 72 hrs.
From the text: as §1

Data set [9] deals with Vaccinia virus and Herpes simplex virus. The settings on record: cited from earlier work.

Turning to `OC[C@H]1O[C@@H](n2cnc3c(NCc4cccc(Cl)c4)ncnc32)[C@@H](O)[C@@H]1O` [6-(3-chlorobenzylamino)-9-β-D-arabinofuranosylpurine], the figures for the half-maximal inhibitory concentration (IC50) in data set [1] and in [2] were > 50 µM and 48 µM, respectively. Moreover, the “activity (%) [10^−4 mol · l^−1 BAP = 100%]” value (“activity (%)” below) in [3] came out at 172 ± 8%. The GI50 at 72 h in [4], in data set [5] and in data set [6] was > 100 µM throughout.
With `OC[C@H]1OC(n2cnc3c(NCc4ccccc4)ncnc32)[C@H](O)[C@@H]1O` (stereo partly shown) [6-benzylaminopurin9-ribosylpurine, 6-benzylamino-9-ribosylpurine, reference compound], the IC50 (as a rule, the point on the concentration scale where inhibition reaches its midpoint) in data set [1] was ≤ 3 µM. Also, the “toxicity in the MTT test” value in data set [1] (positive controls) is on record as “toxic”. Also, the 50% growth inhibitory concentration (GI50) (commonly the concentration that inhibits growth by half) at 72 h was 5.4 µM in [4], 5.5 µM in data set [5] and 39 µM in [6].
Take `OC[C@H]1O[C@@H](n2cnc3c(NCc4ccccc4)ncnc32)C[C@@H]1O` [6-benzylamino-9-β-D-deoxyribosylpurine]: in data set [3] (96 h in the dark at 25° C.), the maximum effective concentration is recorded as 10^−4 mol · l^−1. For the same molecule, the “activity (%)” value in data set [3] amounted to 178 ± 9%. Also, the GI50 (in the data set on breast cancer (MCF-7); in [7]; in data set [8]) was > 100 µM in each case.
As to `Cc1cccc(CNc2ncnc3c2ncn3C2OC(CO)C(O)C2O)c1C` (stereo not shown) [2,3-dimethylbenzyl], in data set [9], the “activity in killing Vaccinia virus and Herpes simplex virus” value was “No effect”.
As for `Cc1cccc(C)c1CNc1ncnc2c1ncn2[C@@H]1O[C@H](CO)[C@@H](O)[C@@H]1O` [2,6-dimethylbenzyl], the “activity in killing Vaccinia virus and Herpes simplex virus” value in [9] is “No effect”.
For “2-chloro-4-fluorobenzylamino-9-β-D-arabinofuranosylpurine”, the GI50 (with breast cancer (MCF-7); in data set [7]; in data set [8]) was > 100 µM throughout.
Turning to `OC[C@H]1O[C@@H](n2cnc3c(NCc4ccc(O)cc4)ncnc32)[C@@H](O)[C@@H]1O` [4-hydroxybenzylamino-9-β-D-arabinofuranosylpurine], the 50% growth inhibitory concentration (GI50) in the data set with breast cancer (MCF-7) was > 100 µM; in [7], > 100 µM; in [8], 87 µM.
With `Cc1ccc(CNc2ncnc3c2ncn3[C@@H]2O[C@H](CO)[C@@H](O)[C@@H]2O)cc1C` [3,4-dimethylbenzyl], the “activity in killing Vaccinia virus and Herpes simplex virus” value in data set [9] was “No effect”.
“3-chloro-4-fluorobenzylamino-9-β-D-arabinofuranosylpurine”: the GI50 (in the data set with breast cancer (MCF-7); in [7]; in [8]) was > 100 µM each time.
On to `Cc1cccc(CNc2ncnc3c2ncn3[C@@H]2O[C@H](CO)[C@@H](O)[C@@H]2O)c1` [3-methylbenzylamino-9-β-D-arabinofuranosylpurine], for which the concentration for 50% growth inhibition (GI50) (in the data set with breast cancer (MCF-7); in [7]; in data set [8]) was > 100 µM in each case. The “activity in killing Vaccinia virus and Herpes simplex virus” value in data set [9] is listed as “No effect”.
Consider `OC[C@H]1O[C@@H](n2cnc3c(NCc4cccc(F)c4)ncnc32)[C@@H](O)[C@@H]1O` [6-(3-fluorobenzylamino)-9-β-D-arabinofuranosylpurine], for which the “activity (%)” value in data set [3] was 195 ± 6%. In addition, the 50% growth inhibitory concentration (GI50) at 72 h in data set [4], in data set [5] and in [6] was > 100 µM in each case.
As to `OC[C@H]1O[C@@H](n2cnc3c(NCc4ccccc4F)ncnc32)[C@@H](O)[C@@H]1O` [2-fluorobenzylamino-9-β-D-arabinofuranosylpurine], the concentration for 50% growth inhibition (GI50) in the data set on breast cancer (MCF-7) is 87 µM; in [7], > 100 µM; in [8] it was > 100 µM.
Turning to `OC[C@H]1O[C@@H](n2cnc3c(NCc4cccc(O)c4)ncnc32)C[C@@H]1O` [3-hydroxybenzylamino-9-β-D-2′-deoxyribosylpurine], the concentration for 50% growth inhibition (GI50) (in the data set on breast cancer (MCF-7); in data set [7]; in data set [8]) was > 100 µM throughout.
For `OC[C@H]1O[C@@H](n2cnc3c(NCc4cccc(Cl)c4)ncnc32)C[C@@H]1O` [3-chlorobenzylamino-9-β-D-2′-deoxyribosylpurine], the GI50 (with breast cancer (MCF-7); in data set [7]; in [8]) was > 100 µM in each case.
`Cc1ccccc1CNc1ncnc2c1ncn2[C@@H]1O[C@H](CO)[C@@H](O)[C@@H]1O` [2-methylbenzylamino-9-β-D-arabinofuranosylpurine]: the 50% growth inhibitory concentration (GI50) (in the data set with breast cancer (MCF-7); in [7]; in data set [8]) was > 100 µM in each case. For the same molecule, the “activity in killing Vaccinia virus and Herpes simplex virus” value in [9] is reported as “No effect”.

The record behind these values is US10100077B2, “6-aryl-9-glycosylpurines and use thereof” (UNIVERZITA PALACKEHO V OLOMOUCI, priority 2014, dated 2018).
